According to PubChem BioAssay (NCI):
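How tested: cells in 96-well plates exposed to compound for 48 hours at five concentrations. TGI: concentration producing complete growth inhibition.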

Columns and labels:
Assay in all cases: DTP human tumour cell line panel, 48 h
[1] = tested on: COLO 205 colon
[2] = tested on: MDA-N
[3] = tested on: ACHN renal
[4] = tested on: HCT-116 colon
[5] = tested on: SK-MEL-2 melanoma
[6] = tested on: A498 renal
[7] = tested on: DU-145 prostate
[8] = tested on: SNB-19 CNS
[9] = tested on: MOLT-4 leukemia
[10] = tested on: HCC-2998 colon
[11] = tested on: HOP-62 NSCLC
[12] = tested on: UACC-257 melanoma
[13] = tested on: U251 CNS
[14] = tested on: EKVX NSCLC
[15] = tested on: LOX IMVI melanoma
[16] = tested on: NCI/ADR-RES ovarian
[17] = tested on: 786-0 renal
[18] = tested on: OVCAR-4 ovarian
[19] = tested on: MALME-3M melanoma
[20] = tested on: SR leukemia
[21] = tested on: NCI-H522 lung
[22] = tested on: NCI-H460 lung
[23] = tested on: SK-MEL-5 melanoma
[24] = tested on: OVCAR-8 ovarian
[25] = tested on: KM12 colon
[26] = tested on: SF-268 CNS
[27] = tested on: PC-3 prostate
[28] = tested on: SW-620 colon
[29] = tested on: UO-31 renal
[30] = tested on: HCT-15 colon
[31] = tested on: HL-60(TB) leukemia
[32] = tested on: OVCAR-5 ovarian
[33] = tested on: IGROV1 ovarian
[34] = tested on: NCI-H23 lung
[35] = tested on: CCRF-CEM leukemia
[36] = tested on: OVCAR-3 ovarian
[37] = tested on: MCF7 breast
[38] = tested on: CAKI-1 renal
[39] = tested on: K-562 leukemia
[40] = tested on: SF-295 CNS
[41] = tested on: BT-549 breast
[42] = tested on: RPMI-8226 leukemia
[43] = tested on: SK-OV-3 ovarian
[44] = tested on: M14 melanoma
[45] = tested on: MDA-MB-435
[46] = tested on: SK-MEL-28 melanoma
[47] = tested on: A549 NSCLC
[48] = tested on: HT29 colon
[49] = tested on: UACC-62 melanoma
[50] = tested on: HS 578T breast
[51] = tested on: SF-539 CNS
[52] = tested on: SN12C renal
[53] = tested on: TK-10 renal
[54] = tested on: MDA-MB-231 breast
[55] = tested on: SNB-75 CNS
[56] = tested on: NCI-H226 lung
[57] = tested on: T-47D breast
[58] = tested on: HOP-92 NSCLC
[59] = tested on: RXF 393 renal

Question: What does the source list for `CCN(CC)c1ccc2cc(-c3nc(-c4ccccc4)n[nH]3)c(=O)oc2c1`?
Answer: TGI [1]: > 100 µM; TGI [2]: > 100 µM; TGI [3]: > 100 µM; TGI [4]: > 100 µM; TGI [5]: > 100 µM; TGI [6]: 90.1 µM; TGI [7]: 40.4 µM; TGI [8]: 61.5 µM; TGI [9]: > 100 µM; TGI [10]: > 100 µM; TGI [11]: 22 µM; TGI [12]: > 100 µM; TGI [13]: 96.2 µM; TGI [14]: 88.7 µM; TGI [15]: > 100 µM; TGI [16]: > 100 µM; TGI [17]: 32.1 µM; TGI [18]: 53.7 µM; TGI [19]: > 100 µM; TGI [20]: > 100 µM; TGI [21]: > 100 µM; TGI [22]: > 100 µM; TGI [23]: > 100 µM; TGI [24]: 28.7 µM; TGI [25]: > 100 µM; TGI [26]: > 100 µM; TGI [27]: 70.1 µM; TGI [28]: > 100 µM; TGI [29]: 20.4 µM; TGI [30]: > 100 µM; TGI [31]: > 100 µM; TGI [32]: > 100 µM; TGI [33]: 57.9 µM; TGI [34]: 44.6 µM; TGI [35]: > 100 µM; TGI [36]: > 100 µM; TGI [37]: > 100 µM; TGI [38]: 73.8 µM; TGI [39]: > 100 µM; TGI [40]: > 100 µM; TGI [41]: 89.3 µM; TGI [42]: > 100 µM; TGI [43]: 39.4 µM; TGI [44]: > 100 µM; TGI [45]: > 100 µM; TGI [46]: > 100 µM; TGI [47]: > 100 µM; TGI [48]: > 100 µM; TGI [49]: > 100 µM; TGI [50]: > 100 µM; TGI [51]: 45.6 µM

Question: Which results are given for `CC(=NC1CCCCC1)c1ccccc1O`?
Answer: TGI [1]: > 100 µM; TGI [2]: > 100 µM; TGI [3]: > 100 µM; TGI [4]: > 100 µM; TGI [5]: > 100 µM; TGI [6]: > 100 µM; TGI [52]: > 100 µM; TGI [7]: > 100 µM; TGI [8]: > 100 µM; TGI [9]: > 100 µM; TGI [11]: > 100 µM; TGI [12]: > 100 µM; TGI [13]: > 100 µM; TGI [14]: > 100 µM; TGI [15]: > 100 µM; TGI [16]: > 100 µM; TGI [17]: > 100 µM; TGI [18]: > 100 µM; TGI [19]: > 100 µM; TGI [20]: > 100 µM; TGI [21]: > 100 µM; TGI [22]: > 100 µM; TGI [23]: > 100 µM; TGI [53]: > 100 µM; TGI [24]: > 100 µM; TGI [25]: > 100 µM; TGI [26]: > 100 µM; TGI [27]: > 100 µM; TGI [28]: > 100 µM; TGI [29]: > 100 µM; TGI [30]: > 100 µM; TGI [31]: > 100 µM; TGI [54]: > 100 µM; TGI [55]: > 100 µM; TGI [32]: > 100 µM; TGI [33]: > 100 µM; TGI [34]: > 100 µM; TGI [35]: > 100 µM; TGI [37]: > 100 µM; TGI [38]: > 100 µM; TGI [39]: > 100 µM; TGI [40]: > 100 µM; TGI [41]: > 100 µM; TGI [42]: > 100 µM; TGI [43]: > 100 µM; TGI [44]: > 100 µM; TGI [45]: > 100 µM; TGI [46]: > 100 µM; TGI [47]: > 100 µM; TGI [56]: > 100 µM; TGI [48]: > 100 µM; TGI [57]: > 100 µM; TGI [49]: > 100 µM; TGI [58]: > 100 µM; TGI [59]: > 100 µM; TGI [51]: > 100 µM

Question: Which results are given for `C=C(C)C(=O)OC1CC2(C)OC(=CC2=O)C(C)CC2OC(=O)C(=C)C12` (configuration not stated)?
Answer: TGI [1]: 3.31 µM; TGI [2]: 7.98 µM; TGI [3]: 14.4 µM; TGI [4]: 5.15 µM; TGI [5]: 34.3 µM; TGI [6]: 37.6 µM; TGI [52]: 36.7 µM; TGI [7]: 18.7 µM; TGI [8]: 39.2 µM; TGI [9]: > 35.1 µM; TGI [10]: 24.8 µM; TGI [11]: 38.1 µM; TGI [12]: 35.2 µM; TGI [13]: 74.5 µM; TGI [14]: 25.1 µM; TGI [15]: 17.8 µM; TGI [16]: 69.8 µM; TGI [17]: 17.6 µM; TGI [18]: 20.1 µM; TGI [19]: 16.1 µM; TGI [20]: > 24.7 µM; TGI [21]: 4.2 µM; TGI [22]: 29.7 µM; TGI [23]: 13.4 µM; TGI [53]: 28.3 µM; TGI [24]: 35.6 µM; TGI [25]: 55.3 µM; TGI [26]: > 100 µM; TGI [27]: 31.8 µM; TGI [28]: 18.3 µM; TGI [29]: 16.6 µM; TGI [30]: 5.19 µM; TGI [54]: 38.8 µM; TGI [55]: 49.2 µM; TGI [32]: 26.9 µM; TGI [33]: 25.4 µM; TGI [34]: 24.6 µM; TGI [36]: 19 µM; TGI [37]: 26.6 µM; TGI [38]: 9.02 µM; TGI [40]: 38.1 µM; TGI [41]: 21.4 µM; TGI [42]: > 100 µM; TGI [43]: > 100 µM; TGI [44]: 24.2 µM; TGI [45]: 25.8 µM; TGI [46]: 30.2 µM; TGI [47]: 47.7 µM; TGI [56]: > 62.8 µM; TGI [48]: 24.2 µM; TGI [57]: 27.8 µM; TGI [49]: 27.7 µM; TGI [58]: 28.7 µM; TGI [59]: 5.62 µM; TGI [51]: 14.2 µM
